Values after ≈ are worked out from the molar mass of the structure shown.
Legend:
eels = assay: Oral toxicity in eels; type: in vivo, eels (Anguilla Japonica); conditions: oral 2000 mg/kg, 7 days, 10 eels per group, 27° to 27.5°C
Experimental: A suspension of PA in 0.2% carboxymethylcellulose was orally given to groups each consisting of 10 eels (Anguilla Japonica, about 160 g) and observation was made for the following 7 days. The temperature of the water was kept at 27° to 27.5°C.

[1] = system: Aeromonas liquefaciens Y-62; assay: Oral administration to eels starting the day before Aeromonas infection; type: in vivo, eels (Anguilla Japonica); conditions: oral 1.56 mg/kg/day for 2 days starting the day before infection; seventh day
Experimental: Groups of eels (Anguilla Japonica, average weight 100 g) (each group consisting of 50 fish) were infected intramuscularly with Aeromonas liquefaciens Y-62 (10^9 germs/fish). For 2 days starting at the day before infection, a suspension consisting of a diet containing PA was orally administered to the eels using a catheter at a dose of 1.56 mg/kg/day. On the seventh day after the infection, the eels were observed.
During the experimental period, the temperature of the water was maintained at 25° to 26°C.

[2] = system: Aeromonas liquefacieus Y-62; assay: Oral effect against Aeromonas infection in goldfish; type: in vivo; conditions: for Percent survival: 5 days; for Number of surviving fish after 1 day / Number of surviving fish after 2 days / Number of surviving fish after 3 days / Number of surviving fish after 4 days / Number of surviving fish after 5 days: day 0: PA 10, others 5 fish
Experimental: Goldfish each weighing about 6 - 7 g were given a fish food containing each of the test compounds. After 30 minutes, the fish were infected intramuscularly with Aeromonas liquefacieus Y-62 (about 10^7 germs/fish) under ether anesthesia. […] In the same manner, the control group was given the same fish food without the test compound.

[3] = system: Aeromonas liquefaciens Y-62; assay: Bathing effect against Aeromonas infection in goldfish; type: in vivo; conditions: for Percent survival: 5 days; for Number of survival after 1 day / Number of survival after 2 days / Number of survival after 3 days / Number of survival after 4 days / Number of survival after 5 days: day 0: 6 fish
Experimental: Goldfish each weighing about 8 g were infected intramuscularly with Aeromonas liquefaciens Y-62 (10^7 germs/fish) under ether anesthesia. The fish were grouped and each group was placed in 6 liters of fresh water (23° to 27°C.) containing PA in the amount indicated in Table 3.
Then, observation was made for the following 5 days. In the same manner, the control group was placed in 6 liters of fresh water without any test compound incorporated in it.

[4] = system: Aeromonas liquefaciens Y-62; assay: Oral administration to eels after Aeromonas infection; type: in vivo, eels (Anguilla Japonica); conditions: oral 3.1 mg/kg/day at 4 hours after infection and next day; seventh day
Experimental: Groups of eels (Anguilla Japonica, average weight 100 g) (each group consisting of 50 eels) were infected intramuscularly with Aeromonas liquefaciens Y-62 (10^9 germs/fish). A suspension consisting of a diet containing PA was orally administered to the eels at 4 hours after the infection and on the next day, using a catheter, at a dose of 3.1 mg/kg/day.
The temperature of the water was kept at 25° to 26°C. during the entire experimental period.

[5] = system: Pasteurella piscicida Al-3; assay: MIC by broth serial dilution; type: cell-based; conditions: Photobacterium damselae, AL3; 2% NaCl-Brain Heart Infusion pH 7.3, 25°C, 48 hours; read-out: MIC
Experimental: (§1) The MIC (minimum inhibitory concentration) of a test compound was determined by the serial dilution method on various pathogenic microorganisms incubated under the following experimental conditions. The lowest concentration at which the visible growth of the organism was inhibited was considered as MIC. […]
(§2) the broth-dilution method bouillon, pH 7.2, except for Vibrio (3% NaCl-bouillon, pH 7.2), Pasteurella (2% NaCl-Brain Heart Infusion, pH 7.3 and Chondrococcus (TY medium, pH 7.3) 1 drop of a bacterial suspension per test tube (100 - 1000 minimal growing units in the medium) 25°C, except for Pseud. anguilliseptica (20°C)
(§3) 48 hours, except for Pseudo. anguilliseptica ([…])

Chondrococcus sp K-2 = assay: MIC by broth serial dilution; type: cell-based; conditions: TY medium pH 7.3, 25°C, 48 hours; read-out: MIC
Experimental: as §1, §2, §3

[6] = system: Pseudomonas anguilliseptica T-2; assay: MIC by broth serial dilution; type: cell-based; conditions: T2, bouillon pH 7.2, 20°C, 7 hours, read-out: MIC
Experimental: as §1, §2, §3

[7] = system: Pseudomonas anguilliseptica S-1; assay: MIC by broth serial dilution; type: cell-based; conditions: S1, bouillon pH 7.2, 20°C, 7 hours, read-out: MIC
Experimental: as §1, §2, §3

[8] = system: Aeromonas liquefaciens Y-62; assay: MIC by broth serial dilution; type: cell-based; conditions: Aeromonas hydrophila, Y62; bouillon pH 7.2, 25°C, 48 hours; read-out: MIC
Experimental: as §1, §2, §3

[9] = system: Aeromonas salmonicida Hara-1; assay: MIC by broth serial dilution; type: cell-based; conditions: HARA1, bouillon pH 7.2, 25°C, 48 hours, read-out: MIC
Experimental: as §1, §2, §3

Chondrococcus sp K-1 = assay: MIC by broth serial dilution; type: cell-based; conditions: TY medium pH 7.3, 25°C, 48 hours; read-out: MIC
Experimental: as §1, §2, §3

Vibrio anguillarum K-3 = assay: MIC by broth serial dilution; type: cell-based; conditions: K3, 3% NaCl-bouillon pH 7.2, 25°C, 48 hours, read-out: MIC
Experimental: as §1, §2, §3

[10] = system: Aeromonas salmonicida Hara-2; assay: MIC by broth serial dilution; type: cell-based; conditions: HARA2, bouillon pH 7.2, 25°C, 48 hours, read-out: MIC
Experimental: as §1, §2, §3

[11] = system: Pasteurella piscicida K-1; assay: MIC by broth serial dilution; type: cell-based; conditions: Photobacterium damselae, K1; 2% NaCl-Brain Heart Infusion pH 7.3, 25°C, 48 hours; read-out: MIC
Experimental: as §1, §2, §3

Vibrio anguillarum A-8 = assay: MIC by broth serial dilution; type: cell-based; conditions: A8, 3% NaCl-bouillon pH 7.2, 25°C, 48 hours, read-out: MIC
Experimental: as §1, §2, §3

[12] = system: Aeromonas salmonicida Kusuda; assay: MIC by broth serial dilution; type: cell-based; conditions: bouillon pH 7.2, 25°C, 48 hours, read-out: MIC
Experimental: as §1, §2, §3

[13] = system: Aeromonas salmonicida Kawazu; assay: MIC by broth serial dilution; type: cell-based; conditions: bouillon pH 7.2, 25°C, 48 hours, read-out: MIC
Experimental: as §1, §2, §3

Vibrio anguillarum Km-30 = assay: MIC by broth serial dilution; type: cell-based; conditions: KM30, 3% NaCl-bouillon pH 7.2, 25°C, 48 hours, read-out: MIC
Experimental: as §1, §2, §3

[14] = 0.03% in diet (PA 2.5, AT-1493 2.5, AT-1557 2.2 mg/kg)
[15] = 0.1% in diet (PA 6.1, AT-1493 7.5, AT-1557 7.6, AT-1475 7.5 mg/kg)

CCn1cc(C(=O)O)c(=O)c2cnc(N3CCCC3)nc21 [PA, 5,8-dihydro-2-pyrrolidino-8-ethyl-5-oxopyrido[2,3-d]pyrimidine-6-carboxylic acid]
survival and external appearance (eels): All eels survived without abnormality of their external appearance | eels survived [1]: 80% | Percent survival [2, 14]: 60% | Number of surviving fish after 1 day [2, 14]: 10 | Number of surviving fish after 2 days [2, 14]: 9 | Number of surviving fish after 3 days [2, 14]: 7 | Number of surviving fish after 4 days [2, 14]: 6 | Number of surviving fish after 5 days [2, 14]: 6 | Percent survival [2, 15]: 100% | Number of surviving fish after 1 day [2, 15]: 10 | Number of surviving fish after 2 days [2, 15]: 10 | Number of surviving fish after 3 days [2, 15]: 10 | Number of surviving fish after 4 days [2, 15]: 10 | Number of surviving fish after 5 days [2, 15]: 10 | Percent survival ([3]; bathing conc. 0.5 μg/ml): 100% | Number of survival after 1 day ([3]; bathing conc. 0.5 μg/ml): 6 | Number of survival after 2 days ([3]; bathing conc. 0.5 μg/ml): 6 | Number of survival after 3 days ([3]; bathing conc. 0.5 μg/ml): 6 | Number of survival after 4 days ([3]; bathing conc. 0.5 μg/ml): 6 | Number of survival after 5 days ([3]; bathing conc. 0.5 μg/ml): 6 | Percent survival ([3]; bathing conc. 1 μg/ml): 100% | Number of survival after 1 day ([3]; bathing conc. 1 μg/ml): 6 | Number of survival after 2 days ([3]; bathing conc. 1 μg/ml): 6 | Number of survival after 3 days ([3]; bathing conc. 1 μg/ml): 6 | Number of survival after 4 days ([3]; bathing conc. 1 μg/ml): 6 | Number of survival after 5 days ([3]; bathing conc. 1 μg/ml): 6 | rate of survival [4]: 100% | MIC [5]: 0.3 µg/mL (≈ 1.04 µM) | MIC (Chondrococcus sp K-2): 0.3 µg/mL (≈ 1.04 µM) | MIC [6]: 0.1 µg/mL (≈ 0.347 µM) | MIC [7]: 0.1 µg/mL (≈ 0.347 µM) | MIC [8]: 1 µg/mL (≈ 3.47 µM) | MIC [9]: 0.1 µg/mL (≈ 0.347 µM) | MIC (Chondrococcus sp K-1): 0.3 µg/mL (≈ 1.04 µM) | MIC (Vibrio anguillarum K-3): 1 µg/mL (≈ 3.47 µM) | MIC [10]: 1 µg/mL (≈ 3.47 µM) | MIC [11]: 1 µg/mL (≈ 3.47 µM) | MIC (Vibrio anguillarum A-8): 3 µg/mL (≈ 10.4 µM) | MIC [12]: 0.1 µg/mL (≈ 0.347 µM) | MIC [13]: 0.1 µg/mL (≈ 0.347 µM) | MIC (Vibrio anguillarum Km-30): 3 µg/mL (≈ 10.4 µM)

From patent publication US3981999A, “Fish disease treatment” (Dainippon Pharmaceutical Co., Ltd., priority 1973, dated 1976)
